# Target: T1, MCH receptor (Homo sapiens, UniProt Q99705)
# T1 construct: expressed in transfected cells; host or cells: CHO cells
# Assay: MCH Receptor Binding Assay
# Conditions: membranes from CHO cells expressing the MCH receptor, [125I]-MCH, SPA; class symbols; read-out: MCH Ki
# Description: MCH Receptor Binding Assay: Membranes from CHO cells expressing the MCH receptor were prepared by lysing cells with 5 mM HEPES for 15 min at 4 C. Cell lysates were centrifuged ([…], 15 min) and the pellet was resuspended in 5 mM HEPES. For each 96-well plate (Microlite, Dynex Technologies), 1 mg of cell membranes were incubated with 10 mg of wheat germ agglutinin SPA beads (Amersham) for 5 min at 4 C in a volume of 10 ml of binding buffer (25 mM HEPES, 10 mM MGCl2, 10 mM NaCl, 5 mM MnCl2, 0.1% BSA). The membrane/bead mixture was centrifuged (1500×g, 3.5 min), the supernatant was aspirated, and the pellet was resuspended in 10 ml binding buffer. The centrifugation, aspiration and resuspension were then repeated. The membrane/bead mixture (100 μl) was then added to 96-well plates containing 50 μl of 500 pM [^125I]-MCH (NEN) and […] of the appropriate concentration of compound (4× the desired final concentration). Nonspecific binding was determined by including 1 μM MCH in the binding reaction. The binding reaction was incubated at room temperature for 2 h. Plates were then analyzed in a TOPCOUNT microplate scintillation counter (Packard). Data was analyzed and Ki values were determined using GraphPad Prism.
# T1 sequence (Q99705 whole entry): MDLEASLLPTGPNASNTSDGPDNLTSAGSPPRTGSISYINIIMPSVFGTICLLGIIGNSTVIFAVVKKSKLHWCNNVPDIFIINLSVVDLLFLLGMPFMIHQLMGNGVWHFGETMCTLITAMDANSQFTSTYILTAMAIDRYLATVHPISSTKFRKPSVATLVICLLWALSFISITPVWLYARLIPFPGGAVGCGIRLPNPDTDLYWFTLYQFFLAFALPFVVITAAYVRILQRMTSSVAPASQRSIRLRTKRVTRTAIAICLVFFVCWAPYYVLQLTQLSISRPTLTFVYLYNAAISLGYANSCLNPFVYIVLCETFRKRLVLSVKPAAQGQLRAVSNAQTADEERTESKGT
row,SMILES,Ki [nM]
1,N#Cc1cccc(-c2ccc(C3(c4nc5cc(F)c(C(F)(F)F)cc5[nH]4)CC34CCN(c3nc5ccc(Cl)cc5s3)CC4)cc2)c1 (centres unmarked) [Compound 29b],> 100
2,COc1cc(C(=C2CCNCC2)c2nc3cc(F)c(C(F)(F)F)cc3[nH]2)ccc1-c1cccc(C#N)c1 [Compound 1ab],> 100
3,Fc1cc(F)cc(-c2ccc(C(=C3CCN(CC4CC4)CC3)c3nc4cc(Cl)c(Cl)cc4[nH]3)cc2)c1 [Compound 1h],> 100
4,Clc1cc2nc(C(=C3CCN(CC4CC4)CC3)c3ccc(-c4cccc(CN5CCC5)c4)cc3)[nH]c2cc1Cl [Compound 1m],50 to 100
5,CN(C)Cc1cccc(-c2ccc(C(=C3CCN(CC4CC4)CC3)c3nc4cc(Cl)c(Cl)cc4[nH]3)cc2)c1 [Compound 1l],20 to 50
6,CN(C)C(=O)N1CCC(=C(c2ccc(-c3cccc(C#N)c3)cc2)c2nc3cc(F)c(C(F)(F)F)cc3[nH]2)CC1 [Compound 1y],20 to 50
7,N#Cc1cccc(-c2ccc(C(=C3CCN(CC4CC4)CC3)c3nc4cc(F)c(F)cc4[nH]3)cc2)c1 [Compound 1q],50 to 100
8,N#Cc1cccc(-c2ccc(C3(c4nc5cc(F)c(C(F)(F)F)cc5[nH]4)CC34CCN(c3nc5ccccc5s3)CC4)cc2)c1 (centres unmarked) [Compound 29c],> 100
9,CN1CCC(=C(c2ccc(-c3cccc(C#N)c3)cc2)c2nc3cc(F)c(F)cc3[nH]2)CC1 [Compound 1p],> 100
10,N#Cc1cccc(-c2ccc(C(=C3CCNCC3)c3nc4c(Cl)cc(Cl)cc4[nH]3)cc2)c1 [Compound 1t],> 100
11,N#Cc1cccc(-c2ccc(C(=C3CCN(Cc4ccccc4)CC3)c3nc4cc(F)c(Cl)cc4[nH]3)cc2)c1 [Compound 1b],< 20
12,N#Cc1cccc(-c2ccc(C(=C3CCN(CC(=O)O)CC3)c3nc4cc(F)c(C(F)(F)F)cc4[nH]3)cc2)c1 [Compound 1z],< 20
13,N#Cc1cccc(-c2ccc(C3(c4nc5cc(Cl)c(Cl)cc5[nH]4)CC34CCN(CC3CC3)CC4)cc2)c1 (centres unmarked) [Compound 25b],< 20
14,CN1CCC(=C(c2ccc(-c3cccc(C#N)c3)cc2)c2nc3cc(Cl)c(Cl)cc3[nH]2)CC1 [Compound 1e],20 to 50
15,N#Cc1cccc(-c2ccc(C(=C3CCN(Cc4ccccc4)CC3)c3nc4cc(F)ccc4[nH]3)cc2)c1 [Compound 1a],> 100
16,COc1cc(C(=C2CCN(CC3CC3)CC2)c2nc3cc(F)c(C(F)(F)F)cc3[nH]2)ccc1-c1cccc(C#N)c1 [Compound 1aa],> 100
17,CCN(CC)C(=O)N1CCC2(CC1)CC2(c1ccc(-c2cccc(C#N)c2)cc1)c1nc2cc(F)c(C(F)(F)F)cc2[nH]1 (centres unmarked) [Compound 27c],> 100
18,N#Cc1cccc(-c2ccc(C3(c4nc5cc(F)c(C(F)(F)F)cc5[nH]4)CC34CCNCC4)cc2)c1 (centres unmarked) [Compound 24a],< 20
19,N#Cc1cccc(-c2ccc(C3(c4nc5cc(Cl)c(Cl)cc5[nH]4)CC34CCNCC4)cc2)c1 (centres unmarked) [Compound 24b],< 20
20,CS(=O)(=O)N1CCC(=C(c2ccc(-c3cccc(C#N)c3)cc2)c2nc3cc(Cl)c(Cl)cc3[nH]2)CC1 [Compound 1g],50 to 100

row,SMILES,Ki [nM]
1,N#Cc1cccc(-c2ccc(C(=C3CCN(CC4CC4)CC3)c3nc4cc(Cl)cc(Cl)c4[nH]3)cc2)c1 [Compound 1u],50 to 100
2,CC(C)(C)OC(=O)N1CCC2(CC1)CC2(c1ccc(-c2cccc(C#N)c2)cc1)c1nc2cc(F)c(C(F)(F)F)cc2[nH]1 (centres unmarked) [Compound 23a],> 100
3,Clc1cc2nc(C(=C3CCN(CC4CC4)CC3)c3ccc(-c4cccnc4)cc3)[nH]c2cc1Cl [Compound 1j],50 to 100
4,N#Cc1cccc(-c2ccc(C(=C3CCN(C4CCCC4)CC3)c3nc4cc(Cl)c(Cl)cc4[nH]3)cc2)c1 [Compound 1f],< 20
5,N#Cc1cccc(-c2ccc(C(=C3CCN(CC4CC4)CC3)c3nc4cc(Cl)c(Cl)cc4[nH]3)cc2)c1 [Compound 1d],< 20
6,O=Cc1cccc(-c2ccc(C(=C3CCN(CC4CC4)CC3)c3nc4cc(Cl)c(Cl)cc4[nH]3)cc2)c1 [Compound 1k],20 to 50
7,CS(=O)(=O)N1CCC(=C(c2ccc(-c3cccc(C#N)c3)cc2)c2nc3cc(F)c(C(F)(F)F)cc3[nH]2)CC1 [Compound 1v],50 to 100
8,N#Cc1cccc(-c2ccc(C(=C3CCNCC3)c3nc4cc(C(F)(F)F)c(F)cc4[nH]3)cc2)c1 [Compound 1r],< 20
9,CC(C)S(=O)(=O)N1CCC2(CC1)CC2(c1ccc(-c2cccc(C#N)c2)cc1)c1nc2cc(F)c(C(F)(F)F)cc2[nH]1 (centres unmarked) [Compound 26a],50 to 100
10,N#Cc1cccc(-c2ccc(C3(c4nc5cc(Cl)c(Cl)cc5[nH]4)CC34CCN(Cc3ccccc3)CC4)cc2)c1 (centres unmarked) [Compound 23c],< 20
11,CC(C)(C)OC(=O)N1CCC(=C(c2ccc(-c3cccc(C#N)c3)cc2)c2nc3cc(F)c(F)cc3[nH]2)CC1 [Compound 1n],> 100
12,CN(C)C(=O)N1CCC2(CC1)CC2(c1ccc(-c2cccc(C#N)c2)cc1)c1nc2cc(F)c(C(F)(F)F)cc2[nH]1 (centres unmarked) [Compound 27a],20 to 50
13,N#Cc1ccc(-c2ccc(C(=C3CCN(CC4CC4)CC3)c3nc4cc(Cl)c(Cl)cc4[nH]3)cc2)cc1 [Compound 1i],> 100
14,N#Cc1cccc(-c2ccc(C(=C3CCNCC3)c3nc4cc(Cl)c(Cl)cc4[nH]3)cc2)c1 [Compound 1c],< 20
15,CC(C)S(=O)(=O)N1CCC2(CC1)CC2(c1ccc(-c2cccc(C#N)c2)cc1)c1nc2cc(Cl)c(Cl)cc2[nH]1 (centres unmarked) [Compound 26b],> 100
16,CCN(CC)C(=O)N1CCC(=C(c2ccc(-c3cccc(C#N)c3)cc2)c2nc3cc(F)c(C(F)(F)F)cc3[nH]2)CC1 [Compound 1x],20 to 50
17,N#Cc1cccc(-c2ccc(C(=C3CCNCC3)c3nc4cc(F)c(F)cc4[nH]3)cc2)c1 [Compound 1o],50 to 100
18,N#Cc1cccc(-c2ccc(C3(c4nc5cc(F)c(C(F)(F)F)cc5[nH]4)CC34CCN(c3nccs3)CC4)cc2)c1 (centres unmarked) [Compound 29a],> 100
19,N#Cc1cccc(-c2ccc(C3(c4nc5cc(F)c(C(F)(F)F)cc5[nH]4)CC34CCN(CC(=O)O)CC4)cc2)c1 (centres unmarked) [Compound 28a],20 to 50
20,CC(C)(C)OC(=O)N1CCC2(CC1)CC2(c1ccc(-c2cccc(C#N)c2)cc1)c1nc2cc(Cl)c(Cl)cc2[nH]1 (centres unmarked) [Compound 23b],> 100

# Same assay, conditions: membranes from CHO cells expressing the MCH receptor, [125I]-MCH, SPA; numeric value in text; read-out: Ki value
row,SMILES,Ki [nM]
1,N#Cc1cccc(-c2ccc(C3(c4nc5cc(F)c(C(F)(F)F)cc5[nH]4)CC34CCNCC4)cc2)c1 (centres unmarked) [Compound 24a],1.7
